Reference: patent US11530207B2, “Compounds for the treatment of cancer” (SKYHAWK THERAPEUTICS, INC., priority 2018, dated 2022)

Tested on: A673 cells
Assay: Dose-response cell proliferation assay in A673 cells (crystal violet)
Assay type: cell-based
Details: Homo sapiens, A673 cells, 10,000 cells per well, 72 h treatment
Procedure: Small molecule splicing modulators were tested in a dose-response assay using A673 cells. A673 cells were first plated in 96-well plastic tissue culture plates (10,000 cells per well). The cells were treated with vehicle alone (DMSO), or increasing concentrations of SMSM compounds for 72 h. Following treatment, cell proliferation was determined using a crystal violet assay. The relative cell proliferation at each concentration was determined.

First: CNC(=O)/C=C/c1cc(O)c(-c2ccc(N3C[C@H]4CNC[C@H]4C3)nn2)cc1F [SMSM 1, (E)-3-(2-fluoro-4-(6-((3aR,6aS)-hexahydropyrrolo[3,4-c]pyrrol-2(1H)-yl)pyridazin-3-yl)-5-hydroxyphenyl)-N-methylacrylamide]
Second: CNC(=O)/C=C/c1ccc(-c2ccc(N3C[C@H]4CNC[C@H]4C3)nn2)c(O)c1 [SMSM 2, (E)-3-(4-(6-((3aR,6aS)-hexahydropyrrolo[3,4-c]pyrrol-2(1H)-yl)pyridazin-3-yl)-3-hydroxyphenyl)-N-methylacrylamide]
The IC50 of the first is 10-fold higher: 91 nM for the first, 9 nM for the second.

First: CNC(=O)/C=C/c1ccc(-c2ccc(N(C)[C@@H]3C[C@H]4CC[C@@H](C3)N4)nn2)c(O)c1 [SMSM 3, (E)-3-(4-(6-(((1R,3s,5S)-8-azabicyclo[3.2.1]octan-3-yl)(methyl)amino)pyridazin-3-yl)-3-hydroxyphenyl)-N-methylacrylamide]
Second: CNC(=O)/C=C/c1ccc(-c2ccc(N(C)[C@@H]3C[C@H]4CCC[C@@H](C3)N4)nn2)c(O)c1 [SMSM 6, (E)-3-(4-(6-(((1R,3s,5S)-9-azabicyclo[3.3.1]nonan-3-yl)(methyl)amino)pyridazin-3-yl)-3-hydroxyphenyl)-N-methylacrylamide]
The IC50 of the first is 380-fold lower: 8.3 nM for the first, 3120 nM for the second. The first is the more potent here.

First: CNC(=O)/C=C/c1ccc(-c2ccc(O[C@@H]3C[C@H]4CC[C@@H](C3)N4)nn2)c(O)c1 [SMSM 4, (E)-3-(4-(6-(((1R,3s,5S)-8-azabicyclo[3.2.1]octan-3-yl)oxy)pyridazin-3-yl)-3-hydroxyphenyl)-N-methylacrylamide]
Second: CNC(=O)/C=C/c1ccc(-c2ccc(O[C@@H]3C[C@H]4CCC[C@@H](C3)N4)nn2)c(O)c1 [SMSM 20, (E)-3-(4-(6-(((1R,3s,5S)-9-azabicyclo[3.3.1]nonan-3-yl)ypoxy)pyridazin-3-yl)-3-hydroxyphenyl)-N-methylacrylamide]
The IC50 of the first is 110-fold lower: 7 nM for the first, 793 nM for the second. The first is the more potent here.

Going from `CN(C(=O)/C=C/c1ccc(-c2ccc(N(C)[C@@H]3C[C@H]4CCC[C@@H](C3)N4)nn2)c(O)c1)C1CC1` [SMSM 5, (E)-3-(4-(6-(((1R,3s,5S)-9-azabicyclo[3.3.1]nonan-3-yl)(methyl)amino)pyridazin-3-yl)-3-hydroxyphenyl)-N-cyclopropyl-N-methylacrylamide] to `CN(C)C(=O)/C=C/c1ccc(-c2ccc(N(C)[C@@H]3C[C@H]4CCC[C@@H](C3)N4)nn2)c(O)c1` [SMSM 7, (E)-3-(4-(6-(((1R,3s,5S)-9-azabicyclo[3.3.1]nonan-3-yl)(methyl)amino)pyridazin-3-yl)-3-hydroxyphenyl)-N,N-dimethylacrylamide], the IC50 falls from 554 nM to 3.7 nM (150-fold).

First: CNC(=O)/C=C/c1cc(O)c(-c2ccc(N(C)[C@@H]3C[C@H]4CCC[C@@H](C3)N4)nn2)cc1F [SMSM 8, (E)-3-(4-(6-(((1R,3s,5S)-9-azabicyclo[3.3.1]nonan-3-yl)(methyl)amino)pyridazin-3-yl)-2-fluoro-5-hydroxyphenyl)-N-methylacrylamide]
Second: CNC(=O)/C=C/c1cc(O)c(-c2ccc(N(C)[C@H]3C[C@]4(C)CCC[C@](C)(C3)N4)nn2)cc1F [SMSM 15, (E)-3-(4-(6-(((1R,3s,5S)-1,5-dimethyl-9-azabicyclo[3.3.1]nonan-3-yl)(methyl)amino)pyridazin-3-yl)-2-fluoro-5-hydroxyphenyl)-N-methylacrylamide]
The IC50 of the first is 29-fold higher: 20 nM for the first, 0.7 nM for the second. The second is the more potent here.

`CNC(=O)/C=C/c1cc(O)c(-c2ccc(N(C)[C@H]3C[C@]4(C)CC[C@](C)(C3)N4)nn2)cc1F` [SMSM 9] and `CNC(=O)/C=C/c1cc(O)c(-c2ccc(N(C3CC3)[C@H]3C[C@]4(C)CC[C@](C)(C3)N4)nn2)cc1F` [SMSM 11, (E)-3-(4-(6-(cyclopropyl((1R,3s,5 S)-1,5-dimethyl-8-azabicyclo[3.2.1]octan-3-yl)amino)pyridazin-3-yl)-2-fluoro-5-hydroxyphenyl)-N-methylacrylamide] are within 1.5-fold of each other in IC50: 1950 nM for the first, 1390 nM for the second.

Compared with `CNC(=O)/C=C/c1ccc(-c2ccc(N(C)[C@H]3C[C@]4(C)CC[C@](C)(C3)N4)nn2)c(O)c1` [SMSM 10, (E)-3-(4-(6-(((1R,3s,5S)-1,5-dimethyl-8-azabicyclo[3.2.1]octan-3-yl)(methyl)amino)pyridazin-3-yl)-3-hydroxyphenyl)-N-methylacrylamide], `CNC(=O)/C=C/c1ccc(-c2ccc(N(C)[C@H]3C[C@]4(C)CCC[C@](C)(C3)N4)nn2)c(O)c1` [SMSM 14, (E)-3-(4-(6-(((1R,3s,5S)-1,5-dimethyl-9-azabicyclo[3.3.1]nonan-3-yl)(methyl)amino)pyridazin-3-yl)-3-hydroxyphenyl)-N-methylacrylamide] is 990-fold lower in IC50: 1580 nM for the first, 1.6 nM for the second. The second is the more potent here.

First: CN(c1ccc(-c2ccc(/C=C/c3nnn[nH]3)cc2O)nn1)[C@H]1C[C@]2(C)CC[C@](C)(C1)N2 [SMSM 12, 5-((E)-2-(1H-tetrazol-5-yl)vinyl)-2-(6-(((1R,3s,5S)-1,5-dimethyl-8-azabicyclo[3.2.1]octan-3-yl)(methyl)amino)pyridazin-3-yl)phenol]
Second: CNC(=O)/C=C/c1ccc(-c2ccc(N(C)C3CC(C)(C)NC(C)(C)C3)nn2)c(O)c1 [SMSM 16, (E)-3-(3-hydroxy-4-(6-(methyl(2,2,6,6-tetramethylpiperidin-4-yl)amino)pyridazin-3-yl)phenyl)-N-methylacrylamide]
The IC50 of the first is higher: over 1000 nM for the first, 0.2 nM for the second. The second is the more potent here.

First: CNC(=O)/C=C/c1cc(O)c(-c2ccc(N(C3CC3)[C@H]3C[C@]4(C)CCC[C@](C)(C3)N4)nn2)cc1F [SMSM 13, (E)-3-(4-(6-(cyclopropyl((lR,3s,5 S)-1,5-dimethyl-9-azabicyclo[3.3.1]nonan-3-yl)amino)pyridazin-3-yl)-2-fluoro-5-hydroxyphenyl)-N-methylacrylamide]
Second: CNC(=O)/C=C/c1cc(O)c(-c2ccc(N3CCC(N)CC3)nn2)cc1F [SMSM 17, (E)-3-(4-(6-(4-aminopiperidin-1-yl)pyridazin-3-yl)-2-fluoro-5-hydroxyphenyl)-N-methylacrylamide]
The IC50 of the first is higher: over 1000 nM for the first, 0.3 nM for the second. The second is the more potent here.

Compared with `CNC(=O)/C=C/c1ccc(-c2ccc(N3CCC(N)CC3)nn2)c(O)c1` [SMSM 18, (E)-3-(4-(6-(4-aminopiperidin-1-yl)pyridazin-3-yl)-3-hydroxyphenyl)-N-methylacrylamide], `CNC(=O)/C=C/c1ccc(-c2ccc(S[C@@H]3C[C@H]4CC[C@@H](C3)N4)nn2)c(O)c1` [SMSM 23, (E)-3-(4-(6-(((1R,3s,5S)-8-azabicyclo[3.2.1]octan-3-yl)thio)pyridazin-3-yl)-3-hydroxyphenyl)-N-methylacrylamide] is lower in IC50: over 1000 nM for the first, 201 nM for the second.

Going from `CN(C)C(=O)/C=C/c1ccc(-c2ccc(O[C@@H]3C[C@H]4CCC[C@@H](C3)N4)nn2)c(O)c1` [SMSM 19] to `CNC(=O)/C=C/c1ccc(-c2ccc(O[C@H]3C[C@H]4C[C@@H]3CN4)nn2)c(O)c1` [SMSM 21], the IC50 falls from over 1000 nM to 369 nM. The second is the more potent here.

`CNC(=O)/C=C/c1ccc(-c2ccc(O[C@@H]3C[C@@H]4C[C@H]3CN4)nn2)c(O)c1` [SMSM 22, (E)-3-(4-(6-(((1S,4S,5R)-2-azabicyclo[2.2.1]heptan-5-yl)oxy)pyridazin-3-yl)-3-hydroxyphenyl)-N-methylacrylamide] showed an IC50 of 330 nM.
